Assay results from ChEMBL document CHEMBL4406848, “Novel water soluble BODIPY compounds: Synthesis, photochemical, DNA interaction, topoisomerases inhibition and photodynamic activity properties” (Eur J Med Chem, 2019).

Experiments:
[1] = Induction of singlet oxygen generation in DMSO solution assessed as singlet oxygen quantum yield by measuring reduction in DPBF irradiated with 650 nanometer laser light; format: functional
[2] = Induction of singlet oxygen generation in TBS solution assessed as singlet oxygen quantum yield by measuring reduction in ADMA irradiated with 650 nanometer laser light; format: functional

Work on CN(C)c1ccc2nc3ccc(=[N+](C)C)cc-3sc2c1 yielded an Activity [1] of 0.57 and an Activity [2] of 0.52.
